# Measured values taken from publication PMC6804443 (Acta Pharmaceutica Sinica. B, 2019).
# Read-outs that look alike come from different tables or passages of the source.
# What was measured:
# [1] = molecular target: T1, OATP1B3 (Homo sapiens, UniProt Q9NPD5); assay: in vitro
# T1 sequence (Q9NPD5 1-702): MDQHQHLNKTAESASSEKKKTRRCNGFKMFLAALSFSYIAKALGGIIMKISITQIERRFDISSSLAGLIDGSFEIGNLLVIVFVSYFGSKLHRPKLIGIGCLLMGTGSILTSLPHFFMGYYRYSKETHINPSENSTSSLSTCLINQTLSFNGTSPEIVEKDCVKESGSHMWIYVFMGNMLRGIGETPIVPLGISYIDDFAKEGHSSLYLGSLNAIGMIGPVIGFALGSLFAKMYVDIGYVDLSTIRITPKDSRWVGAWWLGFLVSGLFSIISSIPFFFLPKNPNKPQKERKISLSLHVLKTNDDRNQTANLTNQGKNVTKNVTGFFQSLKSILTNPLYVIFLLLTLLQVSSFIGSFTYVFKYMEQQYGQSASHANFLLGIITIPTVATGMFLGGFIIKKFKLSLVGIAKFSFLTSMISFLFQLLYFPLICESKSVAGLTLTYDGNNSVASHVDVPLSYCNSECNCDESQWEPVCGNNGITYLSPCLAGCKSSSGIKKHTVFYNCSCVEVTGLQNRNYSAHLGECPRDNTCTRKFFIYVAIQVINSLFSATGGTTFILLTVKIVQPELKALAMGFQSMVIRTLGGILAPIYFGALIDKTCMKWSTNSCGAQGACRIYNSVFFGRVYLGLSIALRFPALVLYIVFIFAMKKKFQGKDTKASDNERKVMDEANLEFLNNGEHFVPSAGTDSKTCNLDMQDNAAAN
# [2] = molecular target: T1, OATP1B3; settings: for Inhibition DDI index, OATP1B3: antibiotic as perpetrator, salvianolic acid B (X10) as victim, (Cmax × fu-p × R)/IC50
# [3] = molecular target: T2, OAT3 (Homo sapiens, UniProt Q8TCC7); assay: Reported in vitro interaction with OAT3; format: in vitro ADME; settings: estimated from reported Cmax, fu-p and literature potency
# T2 sequence (Q8TCC7 1-542): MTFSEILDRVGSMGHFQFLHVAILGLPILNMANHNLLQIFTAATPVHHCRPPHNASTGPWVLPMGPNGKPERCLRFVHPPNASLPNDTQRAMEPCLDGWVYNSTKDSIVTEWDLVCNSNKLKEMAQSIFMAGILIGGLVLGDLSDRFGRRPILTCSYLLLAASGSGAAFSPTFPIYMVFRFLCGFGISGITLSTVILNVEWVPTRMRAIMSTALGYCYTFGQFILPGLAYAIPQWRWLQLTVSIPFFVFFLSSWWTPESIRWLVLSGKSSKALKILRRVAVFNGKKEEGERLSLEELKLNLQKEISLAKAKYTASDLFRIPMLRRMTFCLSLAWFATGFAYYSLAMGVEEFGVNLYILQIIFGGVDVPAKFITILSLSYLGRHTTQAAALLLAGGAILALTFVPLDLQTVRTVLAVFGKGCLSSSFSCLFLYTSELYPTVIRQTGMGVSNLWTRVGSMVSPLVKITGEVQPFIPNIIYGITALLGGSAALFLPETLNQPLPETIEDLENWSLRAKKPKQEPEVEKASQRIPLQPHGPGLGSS
# [4] = molecular target: T1, OATP1B3; settings: IC50, OATP1B3 [X10], mean ± SD (n = 3)
# [5] = test system: ALDH; format: in vitro ADME; settings: human, pooled human liver cytosol
# [6] = molecular target: T3, OAT2 (Homo sapiens, UniProt Q9Y694); assay: OAT2 inhibition by antibiotics, transfected HEK293 cells, tanshinol as substrate; format: in vitro ADME; settings: for inhibition at 1000 µM: HEK293, read-out: Inhibition of OAT2
# T3 sequence (Q9Y694 1-546 isoform Q9Y694-2): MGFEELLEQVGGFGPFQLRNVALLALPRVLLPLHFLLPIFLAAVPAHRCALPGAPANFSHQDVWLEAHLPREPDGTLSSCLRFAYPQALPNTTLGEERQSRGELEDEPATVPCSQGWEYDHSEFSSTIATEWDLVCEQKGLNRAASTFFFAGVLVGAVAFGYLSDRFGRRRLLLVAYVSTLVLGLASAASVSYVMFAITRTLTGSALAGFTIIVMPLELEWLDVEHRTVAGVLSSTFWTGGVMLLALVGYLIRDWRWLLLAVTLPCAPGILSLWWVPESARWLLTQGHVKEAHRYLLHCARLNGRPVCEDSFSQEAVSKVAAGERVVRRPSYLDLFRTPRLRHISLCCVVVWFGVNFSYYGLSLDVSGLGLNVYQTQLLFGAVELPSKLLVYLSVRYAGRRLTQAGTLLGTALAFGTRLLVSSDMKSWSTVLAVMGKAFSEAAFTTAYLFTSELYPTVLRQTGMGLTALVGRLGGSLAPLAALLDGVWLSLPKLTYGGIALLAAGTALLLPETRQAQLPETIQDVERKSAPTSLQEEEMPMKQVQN
# [7] = molecular target: T4, OAT1 (Homo sapiens, UniProt Q4U2R8); assay: OAT1 inhibition by antibiotics, transfected HEK293 cells, tanshinol as substrate; settings: for Inhibition DDI index, OAT1: antibiotic as perpetrator, tanshinol (X8) as victim, (Cmax × fu-p × R)/IC50; for inhibition at 1000 μmol/L: human
# T4 sequence (Q4U2R8 1-563): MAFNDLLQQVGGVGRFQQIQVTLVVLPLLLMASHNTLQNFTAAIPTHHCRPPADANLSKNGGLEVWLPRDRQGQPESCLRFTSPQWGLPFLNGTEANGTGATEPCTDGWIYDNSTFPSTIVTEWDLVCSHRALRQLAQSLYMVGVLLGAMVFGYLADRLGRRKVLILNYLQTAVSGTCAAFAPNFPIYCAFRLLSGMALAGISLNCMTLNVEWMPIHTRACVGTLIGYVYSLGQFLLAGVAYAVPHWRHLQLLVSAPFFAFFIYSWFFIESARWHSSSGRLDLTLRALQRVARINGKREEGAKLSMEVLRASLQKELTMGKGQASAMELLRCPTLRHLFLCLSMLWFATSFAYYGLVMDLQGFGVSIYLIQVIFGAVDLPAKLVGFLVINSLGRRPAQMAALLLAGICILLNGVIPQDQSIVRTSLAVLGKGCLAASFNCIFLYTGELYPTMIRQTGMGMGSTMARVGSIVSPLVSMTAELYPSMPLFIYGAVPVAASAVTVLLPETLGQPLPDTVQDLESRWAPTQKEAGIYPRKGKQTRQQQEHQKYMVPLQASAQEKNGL
# [8] = molecular target: T5, UGT2B15 (Homo sapiens, UniProt P54855); format: in vitro ADME; settings: for inhibition at 1000 μmol/L: human, cDNA-expressed UGT2B15
# T5 sequence (P54855 24-530): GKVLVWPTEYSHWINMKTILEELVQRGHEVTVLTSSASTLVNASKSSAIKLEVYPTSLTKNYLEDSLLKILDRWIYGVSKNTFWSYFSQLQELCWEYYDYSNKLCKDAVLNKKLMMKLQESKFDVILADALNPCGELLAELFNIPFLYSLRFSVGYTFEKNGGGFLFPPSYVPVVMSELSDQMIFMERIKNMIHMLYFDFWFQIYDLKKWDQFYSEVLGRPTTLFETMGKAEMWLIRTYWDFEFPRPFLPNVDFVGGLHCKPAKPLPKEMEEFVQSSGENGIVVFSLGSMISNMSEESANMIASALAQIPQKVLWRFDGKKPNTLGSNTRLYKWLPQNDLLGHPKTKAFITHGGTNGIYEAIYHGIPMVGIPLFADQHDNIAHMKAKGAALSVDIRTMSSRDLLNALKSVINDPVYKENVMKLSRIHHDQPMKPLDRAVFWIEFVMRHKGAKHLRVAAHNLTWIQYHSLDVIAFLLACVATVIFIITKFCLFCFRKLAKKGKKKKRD
# [9] = test system: P450 enzymes, UGTs, SULTs, OATP1B1/1B3, OAT1/3, OCT2, MATE1/2-K, MDR1, BCRP; settings: cited from earlier work
# [10] = XueBiJing compounds, cited from earlier work; for LogD(7.4): pH 7.4
# [11] = XueBiJing compounds; cited from earlier work
# [12] = format: in vivo; settings: human; XueBiJing at label dose 100 mL
# [13] = cited from earlier work; for fu-p (unbound fraction in plasma): human plasma; for Cmax / VSS / t1/2 / Major elimination route / fe-U (fraction of dose excreted unchanged into urine): human; for Cmax / VSS / t1/2: XueBiJing 100 mL via 75-min intravenous infusion
# [14] = molecular target: T4, OAT1; assay: OAT1 inhibition by XueBiJing compounds, transfected HEK293 cells [PAH]; format: in vitro ADME
# [15] = molecular target: T3, OAT2; format: in vitro ADME
# [16] = test system: CYP3A4; settings: higher concentrations; range over the named compounds and enzymes
# [17] = test system: CYP2B6; assay: CYP2B6 induction by XueBiJing compounds in cryopreserved human hepatocytes; format: in vitro ADME; settings: higher concentrations; range over the named compounds and enzymes
Molecule,inhibition at 1000 μmol/L [1] [%],"Inhibition DDI index, OATP1B3 [2]",IC50 [4] [µM],IC50 [7] [µM],"Inhibition DDI index, OAT1 [7]",inhibition at 1000 μmol/L [7] [%],Related metabolism and transport data (substrate status) [9],pKa [10],LogD(7.4) [10],Membrane permeability [11],fu-p (unbound fraction in plasma) [13] [%],Cmax [13] [nM],VSS [13] [L/kg],t1/2 [13] [h],Major elimination route [13],also measured
"Cn1nnnc1SCC1=C(C(=O)O)N2C(=O)[C@@H](NC(=O)[C@H](O)c3ccccc3)[C@H]2SC1 [A11, cefamandole]",> 90,1.70,53 ± 20,–,–,–,–,–,–,–,–,–,–,–,–,"DDI index, inhibiting OAT3 [3]: ≥ 1.0"
"Cc1onc(-c2ccccc2)c1C(=O)N[C@@H]1C(=O)N2[C@@H]1SC(C)(C)[C@@H]2C(=O)O [A17, oxacillin]",> 90,4.64,11 ± 2,99 ± 31,0.52,63 to 88,–,–,–,–,–,–,–,–,–,"IC50 [5]: 465 ± 72 µM; inhibition at 1000 μmol/L [5]: 56 to 88%; IC50 [6]: 467 ± 97 µM; inhibition at 1000 µM [6]: 60 to 84%; Inhibition DDI index, OAT2 ([6]; antibiotic as perpetrator, tanshinol (X8) as victim, (Cmax × fu-p × R)/IC50): 0.11"
"Cc1onc(-c2c(F)cccc2Cl)c1C(=O)N[C@@H]1C(=O)N2[C@@H]1SC(C)(C)[C@@H]2C(=O)O [A19, flucloxacillin]",> 90,1.07,26 ± 9,173 ± 27,0.16,≥ 90,–,–,–,–,–,–,–,–,–,IC50 [5]: 45 ± 6 µM; inhibition at 1000 μmol/L [5]: 56 to 88%; IC50 [6]: 729 ± 131 µM; inhibition at 1000 µM [6]: 60 to 84%; IC50 [8]: 336 ± 83 µM; inhibition at 1000 μmol/L [8]: 60 to 88%
"CC(=O)NC[C@H]1CN(c2ccc(N3CCOCC3)c(F)c2)C(=O)O1 [A29, linezolid]",–,–,–,–,–,–,–,–,–,–,–,–,–,–,–,"DDI index, inhibiting OAT3 [3]: ≥ 1.0"
"C[C@@H](c1ncncc1F)[C@](O)(Cn1cncn1)c1ccc(F)cc1F [A45, voriconazole]",64 to 88,2.16,19 ± 8,189 ± 75,0.22,63 to 88,–,–,–,–,–,–,–,–,–,"IC50 [8]: 55 ± 6 µM; Inhibition DDI index, UGT2B15 ([8]; antibiotic as perpetrator, senkyunolide I (X5) as victim, (Cmax × fu-p × R)/IC50): 0.75; inhibition at 1000 μmol/L [8]: ≥ 90%"
"C[C@@]12C[C@@]3(O)O[C@@H](O1)[C@]1(COC(=O)c4ccccc4)[C@H]3C[C@@]12O[C@@H]1O[C@H](CO)[C@@H](O)[C@H](O)[C@H]1O [X2, paeoniflorin]",–,–,–,–,–,–,"Not the substrate of P450 enzymes, UGTs, SULTs, OATP1B1/1B3, OAT1/3, OCT2, MATE1/2-K, MDR1, or BCRP",11.5,0.1,Poor,82,18200,0.19,1.1,"Renal excretion, GF-based",Unbound Cmax [12]: 15000 nM; fe-U (fraction of dose excreted unchanged into urine) [13]: 63%
"C[C@]12C[C@@H](O)[C@@H]3C[C@@]1(O[C@@H]1O[C@H](CO)[C@@H](O)[C@H](O)[C@H]1O)[C@@]3(COC(=O)c1ccccc1)C(=O)O2 [X4, albiflorin]",–,–,–,–,–,–,"Not the substrate of P450 enzymes, UGTs, SULTs, OATP1B1/1B3, OAT1/3, OCT2, MATE1/2-K, MDR1, or BCRP",12.8,−0.9,Poor,83,800,0.08,0.7,"Renal excretion, GF-based",fe-U (fraction of dose excreted unchanged into urine) [13]: 62%
"CCCCC1(O)OC(=O)C2=C1CCC=C2 (centres unmarked) [X7, senkyunolide G]",–,–,–,–,–,–,Poor UGT substrate,10.7,1.5,Good,3,500,0.10,2.3,Hepatic glucuronidation,"Inhibition of OAT1 ([14]; 100 μmol/L): > 50%; IC50 ([14]; read-out: IC50, OAT1 [PAH], mean ± SD (n = 3)): 11 ± 3 µM; Inhibition of OAT2 ([15]; 100 μmol/L): > 50%; IC50 ([15]; read-out: IC50, OAT2 [prostaglandin F2α], mean ± SD (n = 3)): 51 ± 5 µM; mRNA-T/U ratio, CYP3A4 [16]: 4.0 to 9.6; mRNA-T/U ratio, CYP2B6 [17]: 4.0 to 9.6"
teicoplanin [A26],–,0.60,–,–,–,–,–,–,–,–,–,–,–,–,–,"IC50 ([6]; read-out: IC50, OAT2 [X8], mean ± SD (n = 3)): 64 ± 14 µM; IC50 ([2]; read-out: IC50, OATP1B3 [X10], mean ± SD (n = 3)): 8 ± 2 µM; Inhibition of OATP1B3 ([2]; test concentration 100 μmol/L): > 90%"
